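Five concentrations, 48 hours, 96-well plates. GI50 is the concentration that inhibits growth by half.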 Calls of active or inactive are those of the source. No stated cut-off is given here; in the data, active = GI50 up to about 1.1 µM and inactive = higher.
Assays:
Experiment in all cases: inhibition of tumour cell growth, NCI panel, 48 h
RPMI-8226 = test system: RPMI-8226
SF-268 = test system: SF-268
HT-29 = test system: HT-29
OVCAR-8 = test system: OVCAR-8
ACHN = test system: ACHN
MOLT-4 = test system: MOLT-4
Malme-3M = test system: Malme-3M
HCT-116 = test system: HCT-116
HOP-62 = test system: HOP-62
U-251 = test system: U-251
UACC-62 = test system: UACC-62
A549 = test system: A549
NCI-H460 = test system: NCI-H460
COLO 205 = test system: COLO 205
K562 = test system: K562

Measured: GI50

O=c1[nH]c(=O)n(C2CC(O)C(CO)O2)cc1C#Cc1c(F)c(F)c(F)c(F)c1F (stereo unspecified)
inactive: RPMI-8226 > 100 µM | SF-268 > 100 µM | HT-29 > 100 µM | OVCAR-8 > 100 µM | ACHN > 100 µM | MOLT-4 > 100 µM | Malme-3M > 100 µM | HCT-116 > 100 µM | HOP-62 > 100 µM | U-251 > 100 µM | UACC-62 > 100 µM | A549 > 100 µM | NCI-H460 > 100 µM | COLO 205 > 100 µM | K562 > 100 µM

COc1nc2c(OC)cccc2c(OC)c1C=O
inactive: RPMI-8226 > 100 µM | HT-29 > 100 µM | OVCAR-8 > 100 µM | ACHN > 100 µM | MOLT-4 61.5 µM | Malme-3M > 100 µM | HCT-116 76.7 µM | HOP-62 22.1 µM | U-251 > 100 µM | UACC-62 > 100 µM | A549 > 100 µM | NCI-H460 > 100 µM | COLO 205 > 100 µM | K562 53.7 µM

CN(C)C=C1C(Cl)=C(C=O)CC(C=O)=C1Cl
inactive: RPMI-8226 2.39 µM | SF-268 8.17 µM | HT-29 14 µM | OVCAR-8 3.13 µM | ACHN 12.9 µM | MOLT-4 2.54 µM | Malme-3M 10.4 µM | HOP-62 23.7 µM | U-251 11.4 µM | UACC-62 15.1 µM | A549 86.9 µM | NCI-H460 20.7 µM | COLO 205 15.6 µM | K562 3.03 µM

Cc1ccc(C)c(N2C(=O)C(=O)C(c3nc4ccccc4s3)/C(=N/N)C2=O)c1 (stereo unspecified)
inactive: RPMI-8226 > 100 µM | SF-268 > 100 µM | HT-29 > 100 µM | ACHN > 100 µM | MOLT-4 > 100 µM | Malme-3M > 100 µM | HCT-116 > 34.4 µM | HOP-62 > 100 µM | U-251 > 100 µM | UACC-62 > 100 µM | A549 > 100 µM | NCI-H460 > 100 µM | COLO 205 > 39.3 µM | K562 > 100 µM

COC(=O)C12C3C=CC(O3)C1C1C=CC2O1 (stereo unspecified)
inactive: RPMI-8226 > 100 µM | SF-268 > 100 µM | HT-29 > 100 µM | OVCAR-8 > 100 µM | ACHN > 100 µM | MOLT-4 > 100 µM | Malme-3M > 100 µM | U-251 > 100 µM | A549 > 100 µM | NCI-H460 > 100 µM | COLO 205 > 100 µM | K562 > 100 µM

Cc1ccc(S(=O)(=O)O/N=C2\CCC\C2=C/c2ccccc2)cc1
inactive: RPMI-8226 16 µM | SF-268 8.87 µM | HT-29 25.3 µM | OVCAR-8 29 µM | ACHN 11.1 µM | MOLT-4 13 µM | HCT-116 12.4 µM | HOP-62 36.6 µM | U-251 31.6 µM | UACC-62 8.45 µM | A549 29.4 µM | NCI-H460 19.5 µM | COLO 205 16.3 µM | K562 26.7 µM

O=C1Nc2cccc3ncn(c23)C2=C1CCCC2
inactive: RPMI-8226 > 100 µM | SF-268 > 100 µM | OVCAR-8 > 100 µM | ACHN > 100 µM | MOLT-4 > 100 µM | Malme-3M > 100 µM | HCT-116 > 100 µM | U-251 > 100 µM | UACC-62 > 100 µM | A549 > 100 µM | NCI-H460 > 100 µM | COLO 205 > 100 µM | K562 > 100 µM

OCC(O)C(O)c1nn(-c2ccccc2)c2nc3cc(Cl)c(Cl)cc3nc12 (stereo unspecified)
inactive: RPMI-8226 8.93 µM | SF-268 21.4 µM | HT-29 21.9 µM | OVCAR-8 20.4 µM | ACHN 19.5 µM | MOLT-4 13.7 µM | Malme-3M 17.2 µM | HCT-116 16.8 µM | HOP-62 47.5 µM | U-251 29.1 µM | UACC-62 29.4 µM | A549 15.6 µM | NCI-H460 27.7 µM | COLO 205 24.7 µM | K562 13.3 µM

Reference: ChEMBL document CHEMBL1201862, “PubChem BioAssay data set” (2004)
